Laboratory results: patent US20210338548A1, “Mint Flavor Compositions” (The Procter & Gamble Company, priority 2020, published 2021)

Key:
[1] = Comparison of cooling attributes of (−)-menthol and racemic menthol in toothpaste (CREST Cavity formulation); type: in vivo
Source text: The following data helps support the use of racemic menthol to reduce costs of mint flavor compositions herein described. From internal unpublished research, Table B compares replacing (−)-menthol with a racemic menthol in a 1:1 in a toothpaste formulation. Such a direct replacement is not preferred given the reduced cooling profile and olfactory differences; however, a portion of L-menthol is preferably replaced by racemic-menthol to gain cost efficiency while minimizing impact to the overall mint flavor profiles.
Table B is a comparison of attributes between (−)-menthol and racemic menthol in a toothpaste context (using CREST Cavity formulation).
This value represents the concentration of a coolant where 50% of its maximal cooling is observed.

[2] = Expert sensory testing of racemic menthol vs (−)-menthol in toothpaste (CREST Cavity) with standard spearmint flavor; type: in vivo
Protocol: In separate, unpublished internal experiments, perceptual experiences of racemic menthol are quantified via expert sensory testing. The use of a standard spearmint flavor (minimizing extra menthol contribution) compared racemic menthol to (−)-menthol in a toothpaste formulation (CREST Cavity). There are several sensory observations taken from these experiments. […] These aromatic notes appear during brushing and disappear after 5-10 minutes post expectoration and are more pronounced as concentrations increase.

EC 50 ([1]; concentration of coolant giving 50% of its maximal cooling): 1,250 to 1,500 parts per million
SMILES: CC1CCC(C(C)C)C(O)C1 (racemic) [Racemic Menthol]
Maximum Longevity [1]: Up to 20 minutes
Potency compared to L-Menthol [1]: ~0.65-0.7x
Time Point at Maximum Cooling [1]: ~1 min
Maximum Cooling (0-60 scale) ([1]; 60 = greatest amount of cooling, 0 = least): 35
less potent than (−)-menthol for cooling [2]: 25-30%
